In US20030220310A1, “Epoxy-steroidal aldosterone antagonist and calcium channel blocker combination therapy for treatment of congestive heart failure” (priority 2003, published 2003):

Test system: patients with heart failure after an acute myocardial infarction
Assay: Example 20 clinical study: eplerenone plus CCB in heart failure following acute myocardial infarction
Assay type: in vivo, human
Source text: Clinical Study: Safety and Efficacy of Eplerenone When Co-Administered with a Calcium-Channel Blocker in Patients with Heart Failure Followin Acute Myocardial Infarctiong
Secondary endpoints include cardiovascular morbidity and mortality. The study is a multicenter, randomized, double-blind, placebo-controlled, two-arm, parallel group trial that will continue until 1,012 deaths occur, which is estimated to require approximately 6,200 randomized patients followed for an average of approximately 2.5 years.
Eligible patients may be identified for inclusion at any time following emergency room evaluation and presumptive diagnosis of AMI with HF. […]
Patients will receive CCB therapy and may have received anticoagulants and antiplatelet agents, and may have received thrombolytics or emergency angioplasty. […] Serum potassium will be determined at 48 hours after initiation of treatment, at 1 and 5 weeks, at all other scheduled study visits, and within one week following any dose change.
Study visits will occur at screening, baseline (randomization), 1 and 4 weeks, 3 months, and every 3 months thereafter until the study is terminated. […] Vital signs (seated heart rate and BP), New York Heart Association (NYHA) functional class, adverse events, and selected concurrent medications will be recorded at every visit. […]

Q: Which “primary end point of all cause mortality” value (eplerenone plus CCB relative to CCB alone) does the source give for COC(=O)[C@@H]1CC2=CC(=O)CC[C@]2(C)C23O[C@@H]2C[C@@]2(C)[C@@H](CC[C@@]24CCC(=O)O4)[C@H]13 (stereo partly drawn) [eplerenone, Pregn-4-ene-7,21-dicarboxylic acid, 9,11-epoxy-17-hydroxy-3-oxo-,γ-lactone, methyl ester, (7α,11α,17β)-] here?
A: Improvement

Q: What about the “secondary end points (cardiovascular mortality, hospitalizations, quality of life etc.)” value (eplerenone plus CCB versus CCB alone) of the same compound?
A: Beneficial effects
